Laboratory results reported in ChEMBL document CHEMBL1137326, “Cyclic MrIA: a stable and potent cyclic conotoxin with a novel topological fold that targets the norepinephrine transporter” (J Med Chem, 2006).

Experiments:
[1] = molecular target: Sodium-dependent noradrenaline transporter (Homo sapiens, UniProt P23975); assay: Displacement of [3H]nisoxetine from human NET in COS7 cells; assay type: cell-based, COS-7
trypsin = assay: Stability against cleavage by trypsin after 24 hrs by enzymatic digestion assay; assay type: ADME; settings: human, read-out: Activity

Chain of Sodium-dependent noradrenaline transporter (P23975 whole entry): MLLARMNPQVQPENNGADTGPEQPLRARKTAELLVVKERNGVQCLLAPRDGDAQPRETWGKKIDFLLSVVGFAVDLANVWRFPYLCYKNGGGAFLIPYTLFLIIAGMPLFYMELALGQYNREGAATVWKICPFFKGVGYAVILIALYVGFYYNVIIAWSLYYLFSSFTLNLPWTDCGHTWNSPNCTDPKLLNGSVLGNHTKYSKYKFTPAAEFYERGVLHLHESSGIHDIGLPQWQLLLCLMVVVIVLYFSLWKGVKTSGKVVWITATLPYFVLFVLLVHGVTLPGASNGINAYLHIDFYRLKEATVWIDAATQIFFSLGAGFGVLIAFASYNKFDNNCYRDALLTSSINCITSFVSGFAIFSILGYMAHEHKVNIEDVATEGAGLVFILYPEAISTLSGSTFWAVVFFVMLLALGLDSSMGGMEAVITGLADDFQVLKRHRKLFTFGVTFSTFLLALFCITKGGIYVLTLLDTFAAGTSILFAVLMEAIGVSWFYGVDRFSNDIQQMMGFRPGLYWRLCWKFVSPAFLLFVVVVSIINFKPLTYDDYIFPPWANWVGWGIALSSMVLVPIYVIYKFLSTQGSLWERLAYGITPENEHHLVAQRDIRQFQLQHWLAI

SMILES: CC(C)C[C@@H]1NC(=O)[C@H](CCCCN)NC(=O)[C@H](Cc2ccc(O)cc2)NC(=O)CNC(=O)C2CSSCC(NC1=O)C(=O)N[C@@H](Cc1c[nH]cn1)C(=O)N1C[C@H](O)C[C@H]1C(=O)N[C@H](C(=O)O)CSSC[C@H](NC(=O)[C@@H](NC(=O)CNC(=O)[C@@H](N)CC(N)=O)C(C)C)C(=O)N2 (some centres not stated)
- EC50 [1]: 1.82 µM
- remaining at 24 h (trypsin): < 55%
